In patent US20090325986A1, “Deazapurine Analogs of 1'-Aza-L-Nucleosides” (priority 2005, published 2009):

Columns and labels:
Experiment in all cases: biochemical
bovine PNPase = bovine PNPase (Bos taurus, UniProt P55859); settings: for Ki: B. taurus PNPase
Text: (§1) The inhibition constants KI are the dissociation constants for the enzyme-inhibitor complex measured from initial reaction rates. For many, but not all, immucillin inhibitors, a slow-onset of inhibition then occurs consequent upon a time dependent conformational change in the enzyme that leads to tighter binding characterised by the constant KI* (J. F. Morrison and C. T. Walsh, Adv, Enzymol. Relat. Areas Mol. Biol., 1988, 61, 201-310).

human PNPase = human PNPase (Homo sapiens, UniProt P00491); settings: for Ki: H. sapiens PNPase
Chain of human PNPase (P00491 whole entry): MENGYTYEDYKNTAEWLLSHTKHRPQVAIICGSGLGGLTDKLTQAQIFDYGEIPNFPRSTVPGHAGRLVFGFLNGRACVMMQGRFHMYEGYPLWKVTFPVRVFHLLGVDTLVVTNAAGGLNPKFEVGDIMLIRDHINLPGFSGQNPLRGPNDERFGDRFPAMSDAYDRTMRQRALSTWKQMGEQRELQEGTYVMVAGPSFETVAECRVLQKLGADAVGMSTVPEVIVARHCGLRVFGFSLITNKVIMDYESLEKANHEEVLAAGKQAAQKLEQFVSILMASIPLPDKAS
Text: as §1

plasmodial PNPase = plasmodial PNPase (Plasmodium falciparum, UniProt Q8I3X4)
Chain of plasmodial PNPase (Q8I3X4 whole entry): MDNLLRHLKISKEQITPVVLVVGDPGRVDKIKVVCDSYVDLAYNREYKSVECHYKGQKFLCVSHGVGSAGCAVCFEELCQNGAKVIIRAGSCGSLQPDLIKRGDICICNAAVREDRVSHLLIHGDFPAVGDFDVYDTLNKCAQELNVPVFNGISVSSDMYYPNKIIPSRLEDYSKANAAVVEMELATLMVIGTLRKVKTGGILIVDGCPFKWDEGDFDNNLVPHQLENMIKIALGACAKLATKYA
Text: as §1

[1] = Ki*, tighter binding after slow-onset inhibition
[2] = Ki, dissociation constant of enzyme-inhibitor complex from initial reaction rates
[3] = Ki, Plasmodium falciparum PNPase, dissociation constant of enzyme-inhibitor complex from initial reaction rates

Chain of bovine PNPase (P55859 whole entry): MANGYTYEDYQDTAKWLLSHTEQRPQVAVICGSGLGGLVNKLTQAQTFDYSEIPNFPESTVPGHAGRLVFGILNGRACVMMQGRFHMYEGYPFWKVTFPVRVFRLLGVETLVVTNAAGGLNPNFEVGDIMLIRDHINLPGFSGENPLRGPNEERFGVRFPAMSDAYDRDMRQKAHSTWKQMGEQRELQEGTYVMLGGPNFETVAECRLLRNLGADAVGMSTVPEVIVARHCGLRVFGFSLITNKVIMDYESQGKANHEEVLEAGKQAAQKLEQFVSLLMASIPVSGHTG

Row | Structure (SMILES) | Ki (bovine PNPase; [1]) [nM] | Ki (bovine PNPase; [2]) [nM] | type of inhibition (bovine PNPase; bovine PNP) | Ki (human PNPase; [1]) [nM] | Ki (human PNPase; [2]) [nM] | type of inhibition (human PNPase; human PNP) | Ki (plasmodial PNPase; Ki*, Plasmodium falciparum PNPase, tighter binding after slow-onset inhibition) [nM] | Ki (plasmodial PNPase; [3]) [nM] | type of inhibition (plasmodial PNPase; Plasmodium falciparum PNP) | Ki* (plasmodial PNPase; Plasmodium falciparum PNPase, tighter binding after slow-onset inhibition)
1 | O=c1[nH]cnc2c(CN3C[C@@H](CO)[C@H](O)C3)c[nH]c12 [[(−)-10], (3S,4S)-1-[(9-Deazahypoxanthin-9-yl)methyl]-4-(hydroxymethyl)pyrrolidin-3-ol] | 0.5 ± 0.1 | 19 ± 5 | slow onset tight binding inhibitor | 0.68 ± 0.26 | 1.5 ± 0.1 | slow onset tight binding inhibitor | 80 ± 7 | 1700 ± 300 | slow onset tight binding inhibitor | –
2 | O=c1[nH]cnc2c(CN3C[C@H](CO)[C@@H](O)C3)c[nH]c12 [[(+)-10], reference compound] | 0.11 ± 0.014 | 2.1 ± 0.3 | – | – | – | – | – | 0.5 ± 0.04 | – | Not observed
